# Patent US20250059188A1, “ARYLSULPHONAMIDE COMPOUNDS” (Anaxis Pharma Pty Ltd, priority 2021, published 2025)
# Experiments:
# [1] = target: human MLKL (full length) (Homo sapiens (Human), UniProt Q8NB16); assay: KINOMEscan binding assay, human MLKL (full length); conditions: equilibrium dissociation constant
# Procedure, shortened: (§1)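 In this assay, compounds displace DNA- or phage-tagged kinase from an immobilized ligand, and eluted kinase is quantified by qPCR.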
# [2] = target: human RIPK1 (Homo sapiens (Human), UniProt Q13546); assay: KINOMEscan binding assay, human RIPK1; conditions: equilibrium dissociation constant
# Procedure, shortened: as §1
# [3] = target: human RIPK3 (Homo sapiens (Human), UniProt Q9Y572); assay: KINOMEscan binding assay, human RIPK3; conditions: equilibrium dissociation constant
# Procedure, shortened: as §1
# [4] = test system: U937 human histiocytic leukemia cell line; assay: Inhibition of TSQ induced necroptosis in U937 cells (CellTitre-Glo); conditions: Homo sapiens, U-937, TSQ cocktail (TNF, Smac mimetic, Q-VD-OPh), 48 hours, read-out: Inhibition of TSQ-induced necroptosis (IC50 cell-based assay)
# Procedure, shortened: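 U937 cells (20000/well) treated with compound (10-point, 1:3 from 36 μM, 0.3% DMSO) plus TSQ cocktail (hTNF-Fc 100 ng/ml, Smac mimetic 500 nM, Q-VD-OPh 10 μM), 48 h at 37 °C. Viability by CellTiter-Glo luminescence; IC50 from 4-parameter logistic fit. Counter screen: same cells without TSQ.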
# [5] = test system: U937 cells; assay: Counter screen: U937 cell viability without TSQ cocktail (off-target effect); parameters: species or system human; conditions: Homo sapiens, U-937, compound without TSQ cocktail, read-out: Off-target effect (IC50 cell-based assay)
# Procedure, shortened: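 U937 cells (20,000/well) exposed to compound (10-point 1:3 titration from 36 μM, 0.3% DMSO) without TSQ cocktail for 48 h at 37 °C/5% CO2. Viability read as ATP by CellTiter-Glo luminescence; IC50 from 4-parameter logistic fit.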
# human RIPK1, sequence (Q13546 whole entry): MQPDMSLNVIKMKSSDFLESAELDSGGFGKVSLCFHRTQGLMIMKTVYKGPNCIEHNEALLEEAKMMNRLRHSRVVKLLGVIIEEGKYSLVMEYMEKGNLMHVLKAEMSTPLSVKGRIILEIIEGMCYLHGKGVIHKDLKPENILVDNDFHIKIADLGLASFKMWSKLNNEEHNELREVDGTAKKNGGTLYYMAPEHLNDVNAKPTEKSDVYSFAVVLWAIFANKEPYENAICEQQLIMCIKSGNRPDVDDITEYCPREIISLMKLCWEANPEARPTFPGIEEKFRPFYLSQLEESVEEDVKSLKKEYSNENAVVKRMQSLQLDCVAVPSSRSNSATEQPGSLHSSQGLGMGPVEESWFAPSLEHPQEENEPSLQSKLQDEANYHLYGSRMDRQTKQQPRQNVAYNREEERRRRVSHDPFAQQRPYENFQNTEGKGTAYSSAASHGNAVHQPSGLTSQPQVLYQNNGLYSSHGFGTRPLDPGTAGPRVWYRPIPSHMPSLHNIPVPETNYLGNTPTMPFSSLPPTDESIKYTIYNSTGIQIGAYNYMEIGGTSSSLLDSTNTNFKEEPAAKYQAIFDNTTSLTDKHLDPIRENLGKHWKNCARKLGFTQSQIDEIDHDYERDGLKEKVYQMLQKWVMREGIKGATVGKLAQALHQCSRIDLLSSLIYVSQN
# human MLKL (full length), sequence (Q8NB16 whole entry): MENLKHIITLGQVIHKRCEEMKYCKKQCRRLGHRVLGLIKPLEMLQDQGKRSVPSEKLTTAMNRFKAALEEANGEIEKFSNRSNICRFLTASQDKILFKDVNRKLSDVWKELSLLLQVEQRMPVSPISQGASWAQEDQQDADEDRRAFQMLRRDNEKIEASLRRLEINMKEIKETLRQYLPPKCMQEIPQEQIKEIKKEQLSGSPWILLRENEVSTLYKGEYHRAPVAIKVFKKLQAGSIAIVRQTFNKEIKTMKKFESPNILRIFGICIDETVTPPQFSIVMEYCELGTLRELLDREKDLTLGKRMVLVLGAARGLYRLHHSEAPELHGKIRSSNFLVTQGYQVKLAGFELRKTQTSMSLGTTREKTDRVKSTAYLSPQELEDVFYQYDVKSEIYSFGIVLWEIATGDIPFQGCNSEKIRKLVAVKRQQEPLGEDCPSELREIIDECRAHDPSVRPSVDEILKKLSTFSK
# human RIPK3, sequence (Q9Y572 whole entry): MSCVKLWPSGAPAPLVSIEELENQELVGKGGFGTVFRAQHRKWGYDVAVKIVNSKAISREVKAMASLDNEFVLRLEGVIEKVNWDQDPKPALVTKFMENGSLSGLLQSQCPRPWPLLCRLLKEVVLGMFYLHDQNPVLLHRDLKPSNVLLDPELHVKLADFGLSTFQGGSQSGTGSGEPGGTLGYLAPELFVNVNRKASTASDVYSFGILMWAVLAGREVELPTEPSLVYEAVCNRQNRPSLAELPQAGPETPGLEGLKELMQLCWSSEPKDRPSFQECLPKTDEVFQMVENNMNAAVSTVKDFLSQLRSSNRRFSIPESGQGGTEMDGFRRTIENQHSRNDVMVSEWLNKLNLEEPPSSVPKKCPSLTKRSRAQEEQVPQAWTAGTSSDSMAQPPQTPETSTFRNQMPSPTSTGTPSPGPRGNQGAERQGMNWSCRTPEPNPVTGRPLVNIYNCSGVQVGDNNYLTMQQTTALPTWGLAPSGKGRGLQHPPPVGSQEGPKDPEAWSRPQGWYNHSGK
SMILES,Kd [1],Kd [2],Kd [3],IC50 [4],IC50 [5]
"C[C@H](Oc1cc(-c2nn(C)c3c(-c4cnn(C5(CN)CC5)c4)cnc(N)c23)ccc1NS(=O)(=O)C(F)F)c1ccc(F)cc1 [Compound 89, (S)—N-(4-(4-amino-7-(1-(1-(aminomethyl)cyclopropyl)-1H-pyrazol-4-yl)-1-methyl-1H-pyrazolo[4,3-c]pyridin-3-yl)-2-(1-(4-fluorophenyl)ethoxy)phenyl)-1,1-difluoromethanesulfonamide]",< 1 nM,> 10000 nM,> 10000 nM,10 to 1000 nM,> 10000 nM
"C[C@H](Oc1cc(-c2nn(C)c3c(-c4cnn(CCN(C)C)c4)cnc(N)c23)ccc1NS(=O)(=O)C(F)F)c1ccc(F)cc1 [Compound 100, (S)-N-(4-(4-amino-7-(1-(2-(dimethylamino)ethyl)-1H-pyrazol-4-yl)-1-methyl-1H-pyrazolo[4,3-c]pyridin-3-yl)-2-(1-(4-fluorophenyl)ethoxy)phenyl)-1,1-difluoromethanesulfonamide]",< 1 nM,> 10000 nM,> 10000 nM,< 10 nM,> 10000 nM
"CC(C)N(C)CC(C)n1cc(-c2cnc(N)c3c(-c4ccc(NS(=O)(=O)C(F)F)c(O[C@@H](C)c5ccc(F)cc5)c4)nn(C)c23)cn1 (stereo partly drawn) [Compound 101, N-(4-(4-amino-7-(1-(1-(isopropyl(methyl)amino)propan-2-yl)-1H-pyrazol-4-yl)-1-methyl-1H-pyrazolo[4,3-c]pyridin-3-yl)-2-((S)-1-(4-fluorophenyl)ethoxy)phenyl)-1,1-difluoromethanesulfonamide]",< 1 nM,> 10000 nM,> 10000 nM,< 10 nM,> 10000 nM
"C[C@H](Oc1cc(-c2nn(C)c3c(-c4cnc(N5CCN(C)CC5)nc4)cnc(N)c23)ccc1NS(=O)(=O)C(F)F)c1ccc(F)cc1 [Compound 105, (S)-N-(4-(4-amino-1-methyl-7-(2-(4-methylpiperazin-1-yl)pyrimidin-5-yl)-1H-pyrazolo[4,3-c]pyridin-3-yl)-2-(1-(4-fluorophenyl)ethoxy)phenyl)-1,1-difluoromethanesulfonamide]",< 1 nM,> 10000 nM,> 10000 nM,10 to 1000 nM,> 10000 nM
"C[C@H](Oc1cc(-c2nn(C)c3c(-c4cnc(N(C)C)nc4)cnc(N)c23)ccc1NS(=O)(=O)C(F)F)c1ccc(F)cc1 [Compound 106, (S)-N-(4-(4-amino-7-(2-(dimethylamino)pyrimidin-5-yl)-1-methyl-1H-pyrazolo[4,3-c]pyridin-3-yl)-2-(1-(4-fluorophenyl)ethoxy)phenyl)-1,1-difluoromethanesulfonamide]",1 to 100 nM,> 10000 nM,> 10000 nM,10 to 1000 nM,> 10000 nM
"C[C@H](Oc1cc(-c2nn(C)c3c(-c4ccc(N5CCN(C)CC5)nc4)cnc(N)c23)ccc1NS(=O)(=O)C(F)F)c1ccc(F)cc1 [Compound 107, (S)-N-(4-(4-amino-1-methyl-7-(6-(4-methylpiperazin-1-yl)pyridin-3-yl)-1H-pyrazolo[4,3-c]pyridin-3-yl)-2-(1-(4-fluorophenyl)ethoxy)phenyl)-1,1-difluoromethanesulfonamide]",< 1 nM,> 10000 nM,> 10000 nM,10 to 1000 nM,> 10000 nM
"C[C@H](Oc1cc(-c2nn(C)c3c(-c4cnc(N)nc4)cnc(N)c23)ccc1NS(=O)(=O)C(F)F)c1ccc(F)cc1 [Compound 108, (S)-N-(4-(4-amino-7-(2-aminopyrimidin-5-yl)-1-methyl-1H-pyrazolo[4,3-c]pyridin-3-yl)-2-(1-(4-fluorophenyl)ethoxy)phenyl)-1,1-difluoromethanesulfonamide]",< 1 nM,> 10000 nM,> 10000 nM,10 to 1000 nM,> 10000 nM
"COC[C@H](Oc1cc(-c2nn(C)c3c(-c4cnn(C5CCOCC5)c4)cnc(N)c23)ccc1NS(=O)(=O)C(F)F)c1ccc(F)cc1 [Compound 111, (R)—N-(4-(4-amino-1-methyl-7-(1-(tetrahydro-2H-pyran-4-yl)-1H-pyrazol-4-yl)-1H-pyrazolo[4,3-c]pyridin-3-yl)-2-(1-(4-fluorophenyl)-2-methoxyethoxy)phenyl)-1,1-difluoromethanesulfonamide]",1 to 100 nM,> 10000 nM,> 10000 nM,10 to 1000 nM,> 10000 nM
"C[C@H](Oc1cc(-c2nn(C)c3c(-c4ccc(N5CCOCC5)nc4)cnc(N)c23)ccc1NS(=O)(=O)C(F)F)c1ccc(F)cc1 [Compound 115, (S)-N-(4-(4-amino-1-methyl-7-(6-morpholinopyridin-3-yl)-1H-pyrazolo[4,3-c]pyridin-3-yl)-2-(1-(4-fluorophenyl)ethoxy)phenyl)-1,1-difluoromethanesulfonamide]",1 to 100 nM,> 10000 nM,> 10000 nM,10 to 1000 nM,> 10000 nM

# Second part, led by results:
Kd [1],Kd [2],Kd [3],SMILES,IC50 [4],IC50 [5]
< 1 nM,> 10000 nM,> 10000 nM,"C[C@H](Oc1cc(-c2nn(C)c3c(-c4cnn(C5CN(C)C5)c4)cnc(N)c23)ccc1NS(=O)(=O)C(F)F)c1ccc(F)cc1 [Compound 92, (S)-N-(4-(4-amino-1-methyl-7-(1-(1-methylazetidin-3-yl)-1H-pyrazol-4-yl)-1H-pyrazolo[4,3-c]pyridin-3-yl)-2-(1-(4-fluorophenyl)ethoxy)phenyl)-1,1-difluoromethanesulfonamide]",10 to 1000 nM,> 10000 nM
< 1 nM,> 10000 nM,> 10000 nM,"C[C@H](Oc1cc(-c2nn(C)c3c(-c4cnn(C5CCN(C)C5)c4)cnc(N)c23)ccc1NS(=O)(=O)C(F)F)c1ccc(F)cc1 (stereo partly drawn) [Compound 93, N-(4-(4-amino-1-methyl-7-(1-(1-methylpyrrolidin-3-yl)-1H-pyrazol-4-yl)-1H-pyrazolo[4,3-c]pyridin-3-yl)-2-((S)-1-(4-fluorophenyl)ethoxy)phenyl)-1,1-difluoromethanesulfonamide]",10 to 1000 nM,> 10000 nM
< 1 nM,> 10000 nM,> 10000 nM,"C[C@H](Oc1cc(-c2nn(C)c3c(-c4cnn(C5CNC5)c4)cnc(N)c23)ccc1NS(=O)(=O)C(F)F)c1ccc(F)cc1 [Compound 94, (S)-N-(4-(4-amino-7-(1-(azetidin-3-yl)-1H-pyrazol-4-yl)-1-methyl-1H-pyrazolo[4,3-c]pyridin-3-yl)-2-(1-(4-fluorophenyl)ethoxy)phenyl)-1,1-difluoromethanesulfonamide]",10 to 1000 nM,> 10000 nM
1 to 100 nM,> 10000 nM,> 10000 nM,"CC1CNCC(n2cc(-c3cnc(N)c4c(-c5ccc(NS(=O)(=O)C(F)F)c(O[C@@H](C)c6ccc(F)cc6)c5)nn(C)c34)cn2)C1 (stereo partly drawn) [Compound 95, N-(4-(4-amino-1-methyl-7-(1-(5-methylpiperidin-3-yl)-1H-pyrazol-4-yl)-1H-pyrazolo[4,3-c]pyridin-3-yl)-2-((S)-1-(4-fluorophenyl)ethoxy)phenyl)-1,1-difluoromethanesulfonamide]",10 to 1000 nM,> 10000 nM
< 1 nM,> 10000 nM,> 10000 nM,"C[C@H](Oc1cc(-c2nn(C)c3c(-c4cnn(C5(C#N)CC5)c4)cnc(N)c23)ccc1NS(=O)(=O)C(F)F)c1ccc(F)cc1 [Compound 96, (S)-N-(4-(4-amino-7-(1-(1-cyanocyclopropyl)-1H-pyrazol-4-yl)-1-methyl-1H-pyrazolo[4,3-c]pyridin-3-yl)-2-(1-(4-fluorophenyl)ethoxy)phenyl)-1,1-difluoromethanesulfonamide]",10 to 1000 nM,> 10000 nM
